Results reported in patent US11453660B2, “Androgen receptor and glucocorticoid receptor modulators” (ONCOSTELLAE, S.L., priority 2017, dated 2022).

Target: T1, Rat Androgen Receptor (Rattus norvegicus, UniProt P15207)
T1 construct: purchased Life Technologies A15880
T1 sequence (P15207 646-902 limits assumed): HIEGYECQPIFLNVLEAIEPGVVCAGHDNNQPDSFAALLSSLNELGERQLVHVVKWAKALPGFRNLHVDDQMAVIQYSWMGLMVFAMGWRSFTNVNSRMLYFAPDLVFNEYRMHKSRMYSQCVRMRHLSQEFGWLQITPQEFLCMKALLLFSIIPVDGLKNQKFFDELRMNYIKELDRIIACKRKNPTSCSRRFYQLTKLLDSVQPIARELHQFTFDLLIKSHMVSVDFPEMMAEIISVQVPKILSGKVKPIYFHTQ
Experiment: Rat Androgen Receptor Binding (polarscreen AR competitor assay, fluorescence polarization)
Conditions: displacement of Fluormone AL Green, 4 hours at RT, read-out: AR rat-fluorimetric
Procedure: Pharmacological Activity Rat Androgen Receptor Binding
The assay was carried out following the instructions of polarscreen AR competitor assay green kit (Life Technologies, Cat #.: A15880). Briefly, the test is based on measuring the changes of fluorescence polarization shown by the Fluormone AL Green. Thus, when the Fluormone is bound to the receptor, a fluorescence polarization is observed that diminishes when a ligand competes for the receptor binding site and the Fluormone gets displaced.
The inhibition values for each of the compounds are measured in duplicate at 1 and 10 μM and the plate is incubated for 4 hours at RT. Fluorescence polarization is the measured in a Tecan Infinite M1000 Pro reader (λexc=485 nm, λem=535 nm). In order to obtain a dose-response curve and calculate the potency of inhibition (expressed as IC50) for AR, a series of 1:10 dilutions in test in 1× buffer from 10 μM to 0.1 nM for each compound was carried out.

Row | IC50 [µM] | SMILES
1 | 0.1 to 1 | COCCC1=C(C(=O)OC)C(c2csc3ccccc23)C(C(C)=O)=C(C)N1 (stereo not shown) [Example C7, Methyl 5-acetyl-4-(benzo[b]thiophen-3-yl)-2-(2-methoxyethyl)-6-methyl-1,4-dihydropyridine-3-carboxylate]
2 | ≥ 1 | COCC1=C(C(C)=O)C(c2csc3ccccc23)C(C(=O)OC)=C(C)N1 (stereo not shown) [Example C19, Methyl 5-acetyl-4-(benzo[b]thiophen-3-yl)-6-(methoxymethyl)-2-methyl-1,4-dihydropyridine-3-carboxylate]
3 | < 0.1 | CC(=O)C1=C(C)NC(C)=C(C(=O)OCC2CC2)C1c1csc2ccc(F)cc12 (stereo not shown) [Example C21, Cyclopropylmethyl 5-acetyl-4-(5-fluorobenzo[b]thiophen-3-yl)-2,6-dimethyl-1,4-dihydropyridine-3-carboxylate]
4 | < 0.1 | CC(=O)C1=C(C)NC(C)=C(C(=O)OCC2CCCC2)C1c1csc2ccccc12 (stereo not shown) [Example C23, Cyclopentylmethyl 5-acetyl-4-(benzo[b]thiophen-3-yl)-2,6-dimethyl-1,4-dihydropyridine-3-carboxylate]
5 | < 0.1 | CC(=O)C1=C(C)NC(C)=C(C(=O)OC2CCCC2)C1c1csc2ccccc12 (stereo not shown) [Example C26, Cyclopentyl 5-acetyl-4-(benzo[b]thiophen-3-yl)-2,6-dimethyl-1,4-dihydropyridine-3-carboxylate]
6 | ≥ 1 | CC(=O)C1=C(C)NC(C)=C(C(=O)OC2CCC(C)(C)CC2)C1c1csc2ccccc12 (stereo not shown) [Example C27, 4,4-dimethylcyclohexyl 5-acetyl-4-(benzo[b]thiophen-3-yl)-2,6-dimethyl-1,4-dihydropyridine-3-carboxylate]
7 | 0.1 to 1 | CC(=O)C1=C(C)NC(C)=C(C(=O)OC2CCC2)C1c1csc2ccccc12 (stereo not shown) [Example C28, Cyclobutyl 5-acetyl-4-(benzo[b]thiophen-3-yl)-2,6-dimethyl-1,4-dihydropyridine-3-carboxylate]
8 | < 0.1 | COC(=O)C1=C(C(F)(F)F)NC(C)=C(C(C)=O)C1c1csc2ccc(F)cc12 (stereo not shown) [Example C29, Methyl 5-acetyl-4-(5-fluorobenzo[b]thiophen-3-yl)-6-methyl-2-(trifluoromethyl)-1,4-dihydropyridine-3-carboxylate]
9 | ≥ 1 | COC(=O)C1=C(N)NC(C)=C(C(=O)C2CC2)C1c1csc2ccccc12 (stereo not shown) [Example D2, Methyl 2-amino-4-(benzo[b]thiophen-3-yl)-5-(cyclopropanecarbonyl)-6-methyl-1,4-dihydropyridine-3-carboxylate]
10 | < 0.1 | COC(=O)C1=C(N)NC(C)=C(C(C)=O)C1c1csc2ccc(F)cc12 (stereo not shown) [Example D3, Methyl 5-acetyl-2-amino-4-(5-fluorobenzo[b]thiophen-3-yl)-6-methyl-1,4-dihydropyridine-3-carboxylate]
11 | ≥ 1 | CC(=O)C1=C(C)NC(C)=C(C(C)=O)C1c1csc2cc(O)ccc12 [Example G2, 1,1′-(4-(6-hydroxybenzo[b]thiophen-3-yl)-2,6-dimethyl-1,4-dihydropyridine-3,5-diyl)bis(ethan-1-one)]
12 | ≥ 1 | COc1ccc2c(C3C(C(C)=O)=C(C)NC(C)=C3C(C)=O)csc2c1 [Example G3, 1,1′-(4-(6-Methoxybenzo[b]thiophen-3-yl)-2,6-dimethyl-1,4-dihydropyridine-3,5-diyl)diethanone]
13 | ≥ 1 | CC(=O)C1=C(C2CC2)NC(C2CC2)=C(C(C)=O)C1c1csc2ccccc12 [Example G4, 1,1′-(4-(Benzo[b]thiophen-3-yl)-2,6-dicyclopropyl-1,4-dihydropyridine-3,5-diyl)diethanone]
14 | < 0.1 | CC(=O)C1=C(C)NC(C)=C(C(C)=O)C1c1csc2ccc(Cl)cc12 [Example H1, 1,1′-(4-(5-chlorobenzo[b]thiophen-3-yl)-2,6-dimethyl-1,4-dihydropyridine-3,5-diyl)diethanone]
15 | < 0.1 | CC(=O)C1=C(C)NC(C)=C(C(C)=O)C1c1csc2ccc(Br)cc12 [Example H2, 1,1′-(4-(5-bromobenzo[b]thiophen-3-yl)-2,6-dimethyl-1,4-dihydropyridine-3,5-diyl)diethanone]
16 | ≥ 1 | CC(=O)C1=C(C)NC(C)=C(C(C)=O)C1c1csc2ccc(F)cc12 [Example H3, 1,1′-(4-(5-fluorobenzo[b]thiophen-3-yl)-2,6-dimethyl-1,4-dihydropyridine-3,5-diyl)bis(ethan-1-one)]
17 | ≥ 1 | CC(=O)C1=C(C)NC(C)=C(C(C)=O)C1c1csc2ccc(N3CCOCC3)cc12 [Example H4, 1,1′-(2,6-dimethyl-4-(5-morpholinobenzo[b]thiophen-3-yl)-1,4-dihydropyridine-3,5-diyl)bis(ethan-1-one)]

Row | IC50 [µM] | SMILES
18 | ≥ 1 | CC(=O)C1=C(C)NC(C)=C(C(C)=O)C1c1csc2ccc(N3CCN(C)CC3)cc12 [Example H5, 1,1′-(2,6-dimethyl-4-(5-(4-methylpiperazin-1-yl)benzo[b]thiophen-3-yl)-1,4-dihydropyridine-3,5-diyl)bis(ethan-1-one)]
19 | ≥ 1 | CC(=O)C1=C(C)NC(C)=C(C(C)=O)C1c1csc2ccc(NCc3ccccc3)cc12 [Example H6, 1,1′-(4-(5-(benzylamino)benzo[b]thiophen-3-yl)-2,6-dimethyl-1,4-dihydropyridine-3,5-diyl)bis(ethan-1-one)]
20 | ≥ 1 | CC(=O)C1=C(C)NC(C)=C(C(C)=O)C1c1csc2ccc(C#N)cc12 [Example H7, 3-(3,5-diacetyl-2,6-dimethyl-1,4-dihydropyridin-4-yl)benzo[b]thiophene-5-carbonitrile]
21 | ≥ 1 | CC(=O)C1=C(C)NC(C)=C(C(C)=O)C1c1csc2ccc(C(=O)O)cc12 [Example H8, 3-(3,5-diacetyl-2,6-dimethyl-1,4-dihydropyridin-4-yl)benzo[b]thiophene-5-carboxylic acid]
22 | ≥ 1 | CC(=O)C1=C(C)NC(C)=C(C(C)=O)C1c1csc2ccc(C(=O)NC3CC3)cc12 [Example H9, N-cyclopropyl-3-(3,5-diacetyl-2,6-dimethyl-1,4-dihydropyridin-4-yl)benzo[b]thiophene-5-carboxamide]
23 | ≥ 1 | CC(=O)C1=C(C)NC(C)=C(C(C)=O)C1c1csc2ccc(C(=O)NCC3CC3)cc12 [Example H10, N-(cyclopropylmethyl)-3-(3,5-diacetyl-2,6-dimethyl-1,4-dihydropyridin-4-yl)benzo[b]thiophene-5-carboxamide]
24 | ≥ 1 | CC(=O)C1=C(C)NC(C)=C(C(C)=O)C1c1csc2ccc(C(=O)N3CCN(C)CC3)cc12 [Example H11, 1,1′-(2,6-Dimethyl-4-(5-(4-methylpiperazine-1-carbonyl)benzo[b]thiophen-3-yl)-1,4-dihydropyridine-3,5-diyl)bis(ethan-1-one)]
25 | ≥ 1 | CC(=O)C1=C(C)NC(C)=C(C(C)=O)C1c1csc2ccc(C(=O)N3CCOCC3)cc12 [Example H12, 1,1′-(2,6-Dimethyl-4-(5-(morpholine-4-carbonyl)benzo[b]thiophen-3-yl)-1,4-dihydropyridine-3,5-diyl)bis(ethan-1-one)]
26 | ≥ 1 | CC(=O)C1=C(C)NC(C)=C(C(C)=O)C1c1csc2ccncc12 [Example H13, 1,1′-(2,6-Dimethyl-4-(thieno[3,2-c]pyridin-3-yl)-1,4-dihydropyridine-3,5-diyl)bis(ethan-1-one)]
27 | ≥ 1 | CC(=O)C1=C(C)NC(C)=C(C(C)=O)C1c1csc2cnccc12 [Example H14, 1,1′-(2,6-Dimethyl-4-(thieno[2,3-c]pyridin-3-yl)-1,4-dihydropyridine-3,5-diyl)bis(ethan-1-one)]
28 | < 0.1 | COC(=O)C1=C(C2CC2)NC(C)=C(C(C)=O)C1c1csc2ccccc12 (stereo not shown) [Example J1, Methyl 5-acetyl-4-(benzo[b]thiophen-3-yl)-2-cyclopropyl-6-methyl-1,4-dihydropyridine-3-carboxylate]
29 | < 0.1 | CCOC(=O)C1=C(C)NC(C)=C(C(C)=O)C1c1csc2ccccc12 (stereo not shown) [Example J2, Ethyl 5-acetyl-4-(benzo[b]thiophen-3-yl)-2,6-dimethyl-1,4-dihydropyridine-3-carboxylate]
30 | 0.1 to 1 | COC(=O)C1=C(C)NC(C)=C(C(C)=O)C1c1csc2ccc(Cl)cc12 (stereo not shown) [Example J3, Methyl 5-acetyl-4-(5-chlorobenzo[b]thiophen-3-yl)-2,6-dimethyl-1,4-dihydropyridine-3-carboxylate]
31 | ≥ 1 | CC(=O)C1=C(C)NC(C2CC2)=C(C(C)=O)C1c1csc2ccccc12 (stereo not shown) [Example J6, 1,1′-(4-(benzo[b]thiophen-3-yl)-2-cyclopropyl-6-methyl-1,4-dihydro-pyridine-3,5-diyl)diethanone]
32 | 0.1 to 1 | CC(=O)C1=C(C)NC(C)=C(S(C)(=O)=O)C1c1csc2ccccc12 (stereo not shown) [Example J10, 1-(4-(benzo[b]thiophen-3-yl)-2,6-dimethyl-5-(methylsulfonyl)-1,4-dihydro-pyridin-3-yl)ethanone]
33 | < 0.1 | COC(=O)C1=C(C)NC(C)=C(C(C)=O)C1c1csc2ccc(F)cc12 (stereo not shown) [Example J11, Methyl 5-acetyl-4-(5-fluorobenzo[b]thiophen-3-yl)-2,6-dimethyl-1,4-dihydropyridine-3-carboxylate]
34 | < 0.1 | COC(=O)C1=C(C)NC(C)=C(C(C)=O)C1c1csc2ccc(Br)cc12 (stereo not shown) [Example J12, Methyl 5-acetyl-4-(5-bromobenzo[b]thiophen-3-yl)-2,6-dimethyl-1,4-dihydropyridine-3-carboxylate]
